These results are taken from patent US8183371B2, “Pyrazines as delta opioid receptor modulators” (Janssen Pharmaceutica NV, priority 2009, dated 2012).

Where two headings read alike, the source gives them in different places.

The Ki is a dissociation constant, usually derived from enzyme kinetics or from competition with a known ligand. As a reminder, the EC50 is the concentration needed to bring the measured effect to its halfway point.

One assay has as its target T1, mu opioid receptor (Rattus norvegicus, UniProt P33535).
T1 construct: from tissue; host or cells: forebrain of male Wistar rats
In words: Rat brain mu opioid receptor binding assay. Conditions: rat forebrain membranes; ~0.8 nM [3H]DAMGO; read-out: μ-binding Ki. Here is the method:
(§1) Procedure: Male, Wistar rats (150-250 g, VAF, Charles River, Kingston, N.Y.) were killed by CO2, and their brains were removed and placed immediately in ice cold Tris HCl buffer (50 mM, pH 7.4). The forebrains were separated from the remainder of the brain by a coronal transection, beginning dorsally at the colliculi and passing ventrally through the midbrain-pontine junction. After dissection, the forebrains were homogenized in Tris buffer in a Teflon®-glass homogenizer. The homogenate was diluted to a concentration of 1 g of forebrain tissue per 80 mL Tris and centrifuged at 39,000×g for 10 min. The pellet was resuspended in the same volume of Tris buffer containing 5 mM MgCl2 with several brief pulses from a Polytron homogenizer. This particulate preparation was used for the mu opioid binding assays. Following incubation with the mu selective peptide ligand, ˜0.8 nM [^3H]DAMGO, at 25° C. for 2.5 h in a 96-well plate with total assay volume of 1 mL, the plate contents were filtered through Wallac filtermat B sheets on a Tomtec 96-well harvester. The filters were rinsed three times with 2 mL of 10 mM HEPES (pH 7.4) and dried in a 650 W microwave oven for 1.75 min twice. To each sample area 2×40 μL of Betaplate Scint scintillation fluid (LKB) was added and the radioactivity was quantified on a LKB (Wallac) 1205 BetaPlate liquid scintillation counter.
(§2) Analysis: The data from the scintillation counter were used to calculate either the % inhibition compared to control binding (when only a single concentration of test compound was evaluated) or a Ki value (when a range of concentrations was tested). Percent inhibition was calculated as: [(total dpm−test compound dpm)/(total dpm−nonspecific dpm)]*100. Kd and Ki values were calculated using GraphPad PRISM data analysis program.

A further assay deals with T2, δ-opioid receptor (Mus musculus, UniProt P32300).
T2 construct: NG108-15 cell membranes were purchased from Applied Cell Sciences (Rockville, Md.); host or cells: NG108-15 cell membranes (purchased)
T2 sequence (P32300 whole entry): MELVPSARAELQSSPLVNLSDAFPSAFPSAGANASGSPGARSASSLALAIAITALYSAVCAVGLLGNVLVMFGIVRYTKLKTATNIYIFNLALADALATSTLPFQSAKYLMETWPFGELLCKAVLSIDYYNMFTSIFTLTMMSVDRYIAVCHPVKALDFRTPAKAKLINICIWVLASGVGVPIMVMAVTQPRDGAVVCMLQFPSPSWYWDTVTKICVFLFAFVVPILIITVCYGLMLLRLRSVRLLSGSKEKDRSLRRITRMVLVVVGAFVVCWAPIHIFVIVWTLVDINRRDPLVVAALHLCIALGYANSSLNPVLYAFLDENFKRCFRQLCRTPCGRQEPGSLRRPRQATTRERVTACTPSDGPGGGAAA
As to the kind of experiment: [35S]GTPγS binding assay in NG108-15 cell membranes (delta opioid functional assay). The assay is classed as biochemical. The conditions noted are these: for inhibition at 10 µM: 10 μM compound, read-out: GTPγS δ-opioid receptor % Inh @10 μM; for EC50: read-out: GTPγS δ-opioid receptor EC50. Here is the method: Methods: NG108-15 cell membranes were purchased from Applied Cell Sciences (Rockville, Md.). 5 mg/mL of membrane protein was suspended in 10 mM TRIS-HCl pH 7.2, 2 mM EDTA, 10% sucrose. Membranes were maintained at 4-8° C. A 1 mL volume of membranes was added into 10 mL cold binding assay buffer. The assay buffer contained 50 mM Tris, pH 7.6, 5 mM MgCl2, 100 mM NaCl, 1 mM DTT and 1 mM EGTA. The membrane suspension was homogenized twice with a Polytron, and centrifuged at 3000 rpm for 10 min. The supernatant was then centrifuged at 18,000 rpm for 20 min. Ten mL of assay buffer was added into the pellet containing tube. The pellet and buffer were mixed with a Polytron.
Incubation procedure: The pellet membranes (75 μg/mL) were preincubated with SPA beads (10 mg/mL) at 25° C. for 45 min in the assay buffer. The SPA beads (5 mg/mL) coupled with membranes (37.5 μg/mL) were then incubated with 0.1 nM [^35S]GTPγS in the same Tris buffer containing 100 μM GDP in total volume of 200 μL. 200 nM of receptor agonists was used to stimulate [^35S]-GTPγS binding. The basal binding was tested in the absence of agonists and non-specific binding was tested in the presence of 10 μM unlabeled GTPγS.
Data % of Basal=(stimulated−non specific)*100/(basal−non specific). Relative Efficacy of a compound at 200 nM=(% of Basal of test compound at 200 nM)/(Calculated Max of SNC80 dose response. Curve in prism).
In general terms: GTPγS is a poorly hydrolysed GTP analogue; its binding reports G protein activation.

The next assay deals with T3, delta opioid receptor (Rattus norvegicus, UniProt P33533).
T3 construct: from tissue; host or cells: forebrain of male Wistar rats
T3 sequence (P33533 whole entry): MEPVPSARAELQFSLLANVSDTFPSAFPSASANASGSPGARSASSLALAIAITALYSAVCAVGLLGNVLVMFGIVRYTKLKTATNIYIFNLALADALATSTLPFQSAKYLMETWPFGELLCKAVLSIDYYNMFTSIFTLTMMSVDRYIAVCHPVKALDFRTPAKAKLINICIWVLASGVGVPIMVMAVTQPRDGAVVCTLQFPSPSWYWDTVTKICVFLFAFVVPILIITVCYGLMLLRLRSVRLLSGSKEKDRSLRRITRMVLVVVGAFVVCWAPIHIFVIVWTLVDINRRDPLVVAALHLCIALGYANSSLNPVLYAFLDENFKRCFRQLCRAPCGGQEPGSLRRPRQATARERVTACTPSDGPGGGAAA
In words: Rat brain delta opioid receptor binding assay. The method, then: as §1, with “the delta” for “the mu”, “peptide ligand ˜4” for “peptide ligand, ˜0.8”, “nM [^3H]DPDPE or 0.25 nM [^3H]naltrindole” for “nM [^3H]DAMGO,”, “total” for “total assay”, “(pH 7.4),” for “(pH 7.4)”, “area 2×50” for “area 2×40”
as §2

Setting [1] is: rat forebrain membranes, ~4 nM [3H]DPDPE, read-out: δ-binding (DPDPE ligand) Ki.

T1 sequence (P33535 whole entry): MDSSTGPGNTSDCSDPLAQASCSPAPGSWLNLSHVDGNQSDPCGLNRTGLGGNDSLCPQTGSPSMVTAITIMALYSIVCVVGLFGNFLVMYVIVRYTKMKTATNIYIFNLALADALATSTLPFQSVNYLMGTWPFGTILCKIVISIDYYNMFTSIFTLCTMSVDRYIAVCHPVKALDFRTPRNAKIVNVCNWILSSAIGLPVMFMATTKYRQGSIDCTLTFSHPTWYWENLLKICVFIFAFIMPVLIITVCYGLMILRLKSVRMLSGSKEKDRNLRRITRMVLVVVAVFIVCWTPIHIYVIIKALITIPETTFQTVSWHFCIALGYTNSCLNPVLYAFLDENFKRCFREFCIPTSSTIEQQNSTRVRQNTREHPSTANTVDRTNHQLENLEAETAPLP

For `COc1ccc(Oc2nc(-c3ccc(OC)nc3)cnc2NC[C@@H]2CCCN2)cc1` [Cpd 1], the Ki at mu opioid receptor turned out to be 2390 nM. On δ-opioid receptor, the “GTPγS δ-opioid receptor Rel Efficacy” value came out at 0.8696, the inhibition at 10 µM worked out at 6.57% and the EC50 is 58.5 nM. Besides, at delta opioid receptor (setting [1]), the Ki turned out to be 0.6 nM.

`COc1ccc(Oc2nc(-c3cncnc3)cnc2NC[C@@H]2CCCN2)cc1F` [Cpd 8]: the Ki was found to be 202 nM at mu opioid receptor and 0.8 nM on delta opioid receptor (setting [1]). Besides, on δ-opioid receptor, the “GTPγS δ-opioid receptor Rel Efficacy” value is given as 1.0302. Further, on δ-opioid receptor, the EC50 amounted to 148 nM.

Regarding `COc1ccc(Oc2nc(C#Cc3cccnc3)cnc2NC[C@@H]2CCCN2)cc1` [Cpd 3, [3-(4-Methoxy-phenoxy)-5-pyridin-3-ylethynyl-pyrazin-2-yl]-pyrrolidin-2-(S)-ylmethyl-amine], the Ki at mu opioid receptor came out at 3240 nM. For the same compound, at δ-opioid receptor, the “GTPγS δ-opioid receptor Rel Efficacy” value is on record as 1.0797, the inhibition at 10 µM stood at 1% and the EC50 was found to be 46.2 nM. Besides, the Ki at delta opioid receptor (setting [1]) came to 1.5 nM.

For the compound `COc1ccc(Oc2nc(-c3cccnc3)cnc2NC[C@@H]2CCCN2)cc1` [Cpd 2, [3-(4-Methoxy-phenoxy)-5-pyridin-3-yl-pyrazin-2-yl]-pyrrolidin-2-(S)-ylmethyl-amine], the Ki on mu opioid receptor is 816 nM. At δ-opioid receptor, the “GTPγS δ-opioid receptor Rel Efficacy” value is reported as 1.0430, the inhibition at 10 µM is 1% and the EC50 worked out at 29.7 nM. Further, the Ki at delta opioid receptor (setting [1]) was determined as 2.1 nM.

On to `COCC#Cc1cnc(NC[C@@H]2CCCN2)c(Oc2ccc(OC)cc2)n1` [Cpd 4], for which the Ki on mu opioid receptor turned out to be 4980 nM. In addition, on δ-opioid receptor, the “GTPγS δ-opioid receptor Rel Efficacy” value is on record as 0.9477, the inhibition at 10 µM amounted to 1% and the EC50 was 82.5 nM. For the same compound, on delta opioid receptor (setting [1]), the Ki was 1.9 nM.

Turning to `COc1ccc(Oc2nc(-c3cncc(C#N)c3)cnc2N2CCNCC2)cc1` [Cpd 30, 5-[3′-(4-Methoxy-phenoxy)-3,4,5,6-tetrahydro-2H-[1,2′]bipyrazinyl-5′-yl]-nicotinonitrile], on δ-opioid receptor, the “GTPγS δ-opioid receptor Rel Efficacy” value was 1.1345 and the EC50 is 111 nM. Besides, on δ-opioid receptor (200 nM compound, relative to calculated max of SNC80 dose response), the “GTPγS δ-RelEfficacy @200 nM” value is 0.5999. Further, at delta opioid receptor ([3H]naltrindole ligand, read-out: δ-binding (Naltrindole ligand) Ki), the Ki stood at 0.1 nM.
